Test results as given in ChEMBL document CHEMBL1201862, “PubChem BioAssay data set” (2004).
Where a name gives a salt, the structure may show the parent alone.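 Tested at 5 concentrations; 48 h exposure; 96-well plates; endpoints linearly interpolated, else capped at highest concentration. GI50 = concentration required for 50% inhibition of growth.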 The source made the active and inactive calls. Rule as the data show it: active = GI50 up to about 1.1 µM and inactive = higher.

Experiments:
Test in all cases: inhibition of tumour cell growth, NCI panel, 48 h
SNB-19 = test system: SNB-19
SNB-75 = test system: SNB-75
HOP-92 = test system: HOP-92
UO-31 = test system: UO-31
SR = test system: SR
BT-549 = test system: BT-549
Hs-578T = test system: Hs-578T
Malme-3M = test system: Malme-3M
HOP-62 = test system: HOP-62
OVCAR-4 = test system: OVCAR-4
SF-295 = test system: SF-295
DU-145 = test system: DU-145
A498 = test system: A498
NCI-H522 = test system: NCI-H522
NCI/ADR-RES = test system: NCI/ADR-RES
MOLT-4 = test system: MOLT-4
HL-60 = test system: HL-60
MCF7 = test system: MCF7
SK-OV-3 = test system: SK-OV-3
RPMI-8226 = test system: RPMI-8226

Compound | GI50 (SNB-19) | GI50 (SNB-75) | GI50 (HOP-92) | GI50 (UO-31) | GI50 (SR) | GI50 (BT-549) | GI50 (Hs-578T) | GI50 (Malme-3M) | GI50 (HOP-62) | GI50 (OVCAR-4) | GI50 (SF-295) | GI50 (DU-145) | GI50 (A498) | GI50 (NCI-H522) | GI50 (NCI/ADR-RES) | GI50 (MOLT-4) | GI50 (HL-60) | GI50 (MCF7) | GI50 (SK-OV-3) | GI50 (RPMI-8226)
CCOC(=O)NC(=O)c1cn(CCCOC(=O)CCCCCCCCC(=O)OCCCn2cc(C(=O)NC(=O)OCC)c(=O)n(C)c2=O)c(=O)n(C)c1=O | 67 µM (inactive) | > 48.2 µM (inactive) | > 59 µM (inactive) | > 100 µM (inactive) | > 100 µM (inactive) | > 100 µM (inactive) | > 100 µM (inactive) | > 100 µM (inactive) | > 70.6 µM (inactive) | > 100 µM (inactive) | > 100 µM (inactive) | > 100 µM (inactive) | > 100 µM (inactive) | > 100 µM (inactive) | > 100 µM (inactive) | > 100 µM (inactive) | > 77.8 µM (inactive) | > 100 µM (inactive) | > 100 µM (inactive) | > 100 µM (inactive)
CC1(O)CC2(O)C=CC3=C(C(=O)c4cccc(O)c4C3=O)C2(O)C(=O)C1O (stereo not given) | 16.6 µM (inactive) | 8.38 µM (inactive) | 1.07 µM (active) | 1.99 µM (inactive) | 2.3 µM (inactive) | 1.17 µM (inactive) | 3.1 µM (inactive) | 0.406 µM (active) | 21.6 µM (inactive) | 1.51 µM (inactive) | 13.6 µM (inactive) | 18.4 µM (inactive) | 7.26 µM (inactive) | 0.124 µM (active) | 7.83 µM (inactive) | 0.56 µM (active) | 0.478 µM (active) | 0.624 µM (active) | 15.2 µM (inactive) | 1.26 µM (inactive)
Cc1ccc(C(=O)O)c(/C=C2\Cc3ccc(C)cc3C2=O)c1 | 45.1 µM (inactive) | 34 µM (inactive) | > 100 µM (inactive) | 62.1 µM (inactive) | 32.5 µM (inactive) | 12.9 µM (inactive) | 64.3 µM (inactive) | 95.9 µM (inactive) | 44.2 µM (inactive) | 50.5 µM (inactive) | 38.1 µM (inactive) | 79.8 µM (inactive) | 65.9 µM (inactive) | 96.8 µM (inactive) | 71.8 µM (inactive) | 33.6 µM (inactive) | 28.6 µM (inactive) | 63.5 µM (inactive) |  | 19.5 µM (inactive)
CC(=O)Nc1oc(C)c(C)c1S(=O)(=O)c1ccc(Cl)cc1 | > 100 µM (inactive) | 34.4 µM (inactive) | > 100 µM (inactive) | 39 µM (inactive) | 51.5 µM (inactive) | 29.2 µM (inactive) | 33.4 µM (inactive) | 40.2 µM (inactive) |  | 39.1 µM (inactive) | 44.6 µM (inactive) | 85.3 µM (inactive) | > 100 µM (inactive) | 37.7 µM (inactive) | 36 µM (inactive) | 39.4 µM (inactive) | 97.7 µM (inactive) | 19.5 µM (inactive) | 52.5 µM (inactive) | 35.6 µM (inactive)
NC(=O)c1cc2cc(Cl)cc(Cl)c2o/c1=N\c1ccc(F)cc1 | 16.9 µM (inactive) | 14.8 µM (inactive) | 31.9 µM (inactive) | 25.8 µM (inactive) | 4.08 µM (inactive) | 18.6 µM (inactive) | 35.1 µM (inactive) | 21 µM (inactive) | 27.6 µM (inactive) | 23.8 µM (inactive) | 18.5 µM (inactive) | 19 µM (inactive) | 19.4 µM (inactive) | 17.7 µM (inactive) | 16 µM (inactive) | 12.5 µM (inactive) | 64.1 µM (inactive) | 19.8 µM (inactive) | 22.5 µM (inactive) | 26.5 µM (inactive)
C[C@@H]1CCC2[C@@H](C)[C@@H](OCCO[C@H]3OC4O[C@@]5(C)CCC6[C@H](C)CCC([C@H]3C)[C@@]46OO5)OC3O[C@@]4(C)CCC1[C@]32OO4 (stereo not given in full) |  | 0.546 µM (active) | 2.64 µM (inactive) | 0.201 µM (active) | 0.0345 µM (active) | 0.883 µM (active) | 0.211 µM (active) | 0.182 µM (active) | 1.34 µM (inactive) | 0.0361 µM (active) | 0.405 µM (active) | 0.171 µM (active) | 1.92 µM (inactive) | 0.0689 µM (active) | 0.241 µM (active) | 0.0483 µM (active) | 0.0583 µM (active) | 0.0312 µM (active) | 0.577 µM (active) | < 0.01 µM (active)
CCS(=O)(=O)CCn1c(=O)c2c(ncn2C)n(C)c1=O | > 100 µM (inactive) | > 100 µM (inactive) | > 100 µM (inactive) | > 100 µM (inactive) | > 100 µM (inactive) | > 100 µM (inactive) | > 100 µM (inactive) | > 100 µM (inactive) | > 100 µM (inactive) | > 100 µM (inactive) | > 100 µM (inactive) | > 100 µM (inactive) | > 100 µM (inactive) | > 100 µM (inactive) | > 100 µM (inactive) | > 100 µM (inactive) | > 100 µM (inactive) | > 100 µM (inactive) |  | > 100 µM (inactive)
O=C1OCC2OC(=O)c3cc(O)c(O)c(O)c3-c3c(O)c(O)c(O)c4c3C(=O)OC(C2OC(=O)c2cc(O)c(O)c(O)c2-c2c1cc(O)c(O)c2O)C1OC(=O)C2C4=C(O)C(=O)C23Oc2cc(O)c4c(c2[C@H]13)O[C@H](c1ccc(O)c(O)c1)[C@@H](O)C4 (stereo not given in full) | 41.4 µM (inactive) | 28.4 µM (inactive) | 25.9 µM (inactive) | 17.8 µM (inactive) | 27.5 µM (inactive) | 19.3 µM (inactive) | 28.1 µM (inactive) | 23.1 µM (inactive) | 41.7 µM (inactive) | 15.7 µM (inactive) | 19.8 µM (inactive) | 30.9 µM (inactive) | > 100 µM (inactive) | 17.4 µM (inactive) | 23.3 µM (inactive) | 22.6 µM (inactive) | 18.5 µM (inactive) | 23.1 µM (inactive) | 44.1 µM (inactive) | 24.5 µM (inactive)
C=C1[C@H](OCC(C)C)[C@@H](O)[C@@H](OC(=O)c2cccnc2)C(C)(C)/C=C/[C@H](C)[C@H](OC(C)=O)[C@@]2(O)C[C@@](C)(OC(C)=O)[C@H](OC(=O)c3ccccc3)[C@@H]2[C@H]1OC(C)=O | 3.1 µM (inactive) | 0.134 µM (active) | 0.723 µM (active) | 0.54 µM (active) | 1.16 µM (inactive) | 1.66 µM (inactive) | 0.0895 µM (active) | 0.187 µM (active) | 0.0681 µM (active) | 1.9 µM (inactive) | 0.371 µM (active) | 1.91 µM (inactive) | 0.482 µM (active) | 0.944 µM (active) | 1.29 µM (inactive) | 0.138 µM (active) | 0.0695 µM (active) | 1.8 µM (inactive) | > 3.02 µM (inactive) | 0.741 µM (active)
COc1ccc(Cc2nccc3cc(OC)c(OC)cc23)cc1OC [PAPAVERINE HYDROCHLORIDE] | 70.1 µM (inactive) | > 100 µM (inactive) | 36.5 µM (inactive) | 78.7 µM (inactive) | 19.2 µM (inactive) | 53.8 µM (inactive) | > 100 µM (inactive) |  | 43.8 µM (inactive) | > 100 µM (inactive) | 84.9 µM (inactive) | > 100 µM (inactive) | 77.3 µM (inactive) | > 100 µM (inactive) | 26.7 µM (inactive) | 47.8 µM (inactive) | 45 µM (inactive) | > 100 µM (inactive) | > 100 µM (inactive) | 36.7 µM (inactive)
